Here are results for 1 compound from patent USRE43038E1, “Compound having antitumor activity and process for producing the same” (Riken, priority 2002, dated 2011).

Converted amounts (≈) assume the structure as drawn.

The experiment deals with SH-SY5Y cells of human neuroblastoma. The experiment is described as follows: MTT growth inhibition of SH-SY5Y human neuroblastoma cells. The note with it: DMEM with 5% fetal bovine serum, 48 hours culture at 37° C., absorbance at 570 nm, read-out: 50% growth-inhibiting concentration. In kind it is cell-based. As to the method: SH-SY5Y cells of human neuroblastoma were cultured in DMEM medium (Dulbecco's modified Eagle medium) (containing 5% fetal bovine serum). Compound 1 of the present invention in a series of dilutions was added thereto and cultured at 37° C. under a 5% carbon dioxide atmosphere for 48 hours, followed by adding a MTT (3-(4,5-dimethyl-thiazol-2-yl)-2,5-diphenyl tetrazoliumbromide) reagent and further culturing for 2 to 4 hours. Absorbance at 570 nm was then measured to calculate the survival ratio.

As for `CC=C(/C=C(C)/C=C/CC/C=C(\C)C(=O)C12OC1C(C)(O)NC2=O)C(=O)OC(C)(C)C` (stereo not shown) [Compound 1, (3E,5E,9E)-tert-butyl-2-ethylidene-11-(4-hydroxy-4-methyl-2-oxo-6-oxa-3-aza-bicyclo[3.1.0]hex-1-yl)-4,10-dimethyl-11-oxounde ca-3,5,9-trienoate], the IC50 is 0.4 µg/mL (≈ 0.927 µM).
